Data set [1] can be described thus: Clearance in human liver microsomes at 0.5 uM preincubated for 5 mins followed by NADPH addition measured after 30 mins by MSMS analysis. The note with it: read-out: CLH. Format: ADME, microsome. Background: Liver microsomes are vesicles of endoplasmic reticulum, rich in cytochrome P450 enzymes.
The target of data set [2] is cAMP and cAMP-inhibited cGMP 3',5'-cyclic phosphodiesterase 10A (Homo sapiens, UniProt Q9Y233). The experiment in a line: Inhibition of recombinant PDE10A (unknown origin) using cAMP/cGMP as substrate incubated for 60 mins by HTRF assay. In general terms: Time-resolved FRET reads energy transfer from a long-lived donor to a nearby acceptor.
cAMP and cAMP-inhibited cGMP 3',5'-cyclic phosphodiesterase 10A, sequence (Q9Y233 whole entry): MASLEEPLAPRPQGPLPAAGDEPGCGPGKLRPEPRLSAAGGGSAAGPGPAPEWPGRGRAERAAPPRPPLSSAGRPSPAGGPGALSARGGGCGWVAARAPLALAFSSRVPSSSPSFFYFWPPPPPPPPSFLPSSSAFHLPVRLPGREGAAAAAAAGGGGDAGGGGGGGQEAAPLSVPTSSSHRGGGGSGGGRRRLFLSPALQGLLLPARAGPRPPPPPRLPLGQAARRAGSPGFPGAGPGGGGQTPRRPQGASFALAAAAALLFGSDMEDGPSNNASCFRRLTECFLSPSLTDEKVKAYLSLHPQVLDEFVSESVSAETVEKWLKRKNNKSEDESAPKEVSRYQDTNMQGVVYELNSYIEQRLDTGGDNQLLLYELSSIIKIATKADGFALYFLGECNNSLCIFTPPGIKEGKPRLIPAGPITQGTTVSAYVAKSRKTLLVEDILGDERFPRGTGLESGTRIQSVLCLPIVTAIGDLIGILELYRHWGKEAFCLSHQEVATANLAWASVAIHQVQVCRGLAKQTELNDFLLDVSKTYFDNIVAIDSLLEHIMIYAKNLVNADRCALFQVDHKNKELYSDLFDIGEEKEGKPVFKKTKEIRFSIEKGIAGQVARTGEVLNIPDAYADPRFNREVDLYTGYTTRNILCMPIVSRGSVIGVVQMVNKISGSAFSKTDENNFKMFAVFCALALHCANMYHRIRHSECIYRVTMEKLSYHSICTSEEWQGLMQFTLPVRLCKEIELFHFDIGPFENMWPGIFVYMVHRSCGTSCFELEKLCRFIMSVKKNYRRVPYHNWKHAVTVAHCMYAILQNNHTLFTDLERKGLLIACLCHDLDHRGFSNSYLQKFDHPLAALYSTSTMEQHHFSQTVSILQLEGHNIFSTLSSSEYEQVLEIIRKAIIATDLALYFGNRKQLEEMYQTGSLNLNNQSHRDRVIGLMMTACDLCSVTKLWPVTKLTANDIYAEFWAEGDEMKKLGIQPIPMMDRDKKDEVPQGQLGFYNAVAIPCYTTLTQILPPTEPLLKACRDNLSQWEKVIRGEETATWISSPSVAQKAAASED
The nature of data set [3]: Clearance in rat liver microsomes at 0.5 uM preincubated for 5 mins followed by NADPH addition measured after 30 mins by MSMS analysis. The note with it: read-out: CLH. Format: ADME, microsome.

For the molecule `Cn1cc(-c2ccncc2)c(-c2ccc(C#Cc3ccccn3)cc2)n1`, the microsomal CLint at 0.5 µM in data set [1] and in data set [3] was below 100 µL/min/mg in each case. Further, the IC50 in data set [2] was below 100 nM.
As to `Cc1cccc(C#Cc2ccc(-c3nn(C)cc3-c3cn[nH]c3)cc2)n1`, the microsomal CLint at 0.5 µM in data set [1] and in data set [3] was below 100 µL/min/mg in each case. The IC50 in data set [2] was 200 to 500 nM.
As to `Cn1cc(-c2ccncc2)c(-c2ccc(C#Cc3nccn3C)cc2)n1`, the microsomal CLint at 0.5 µM in data set [1] and in data set [3] was below 100 µL/min/mg each time. Besides, the IC50 in data set [2] is below 100 nM.
Consider `Cn1cc(-c2ccncc2)c(-c2ccc(C#Cc3ccc4ccccc4n3)cc2)n1`, for which the microsomal CLint at 0.5 µM in data set [1] and in data set [3] was below 100 µL/min/mg each time. The IC50 in data set [2] is below 100 nM.
For `COc1cc(-c2nn(C)cc2-c2ccncc2)ccc1C#Cc1cccc(C)n1`, the microsomal CLint at 0.5 µM in data set [1] was below 100 µL/min/mg; in data set [3], 100 to 200 µL/min/mg. In addition, the IC50 in data set [2] was below 100 nM.
Take `Cn1cc(-c2ccncc2)c(-c2ccc(C#Cc3nccs3)cc2)n1`: the microsomal CLint at 0.5 µM in data set [1] and in data set [3] was below 100 µL/min/mg in each case. In data set [2], the IC50 was 100 to 200 nM.

Broadly, the IC50 is the concentration that inhibits the measured activity by half.
